Results from US10874669B2 (WAYNE STATE UNIVERSITY, priority 2018, dated 2020).

Legend:
[1] = target: cloned rat D3 receptors (Rattus norvegicus (Rat), UniProt P19020); assay: [3H]spiroperidol competition binding, rat D3 receptors in HEK-293 cells; details: rat D3 in HEK-293 cells; values of Table 3
Description: A well established radioligand competition assay was carried out to evaluate binding affinity of the test compounds and were compared with that of the reference agent (S)-5-OH-DPAT (Table 3). Binding affinity to rat DA D2 and D3 receptors expressed in HEK-293 cells was determined as described by us previously. […] This indicated highest tolerance of the 4-substituted carbazole derivative for interaction with the D2 and D3 receptors.
(§1) All these procedures were described by us previously.

[2] = target: α-syn (Homo sapiens (Human), UniProt P37840); assay: Thioflavin T assay of α-syn aggregation seeded with 0.5% PFFs; type: biochemical; details: 172.9 μM compound, 30D, 37° C., no agitation
Description: The α-syn assay was carried out by following the procedures developed by us earlier. The compounds (−)-91b (D636) and (−)-95a (D653) were incubated with α-syn seeded with 0.5% PFFs for a period of 30D at 37° C. without agitation. […] Both (−)-91b and (−)-95a lead to a significant decrease in the ThT fluorescence (p<0.0001) when compared to α-syn seeded with 0.5% PFFs alone at 30D (FIG. 5A).
The experimental conditions were followed as described in our earlier publication. Briefly, α-syn fibrils were formed by incubating purified α-syn at a concentration of 5 mg/mL at 37° C. under constant agitation at 1000 rpm in a Thermomix R shaker (Eppendorf, Hamburg, Germany) for a period of 5 days. These fibrils at a concentration of 0.5% were used to seed the aggregation of α-syn at 1.25 mg/ml (86.45 μM) with or without compounds D636 or D653 at a concentration of 172.9 μM without agitation at 37° C. for a period of 30 days. Samples were collected at 0D and 30D. Thioflavin T (ThT) assay was performed using these samples as described previously to evaluate the extent of aggregation.

[3] = target: cloned rat D2L receptors (Rattus norvegicus (Rat), UniProt P61169); assay: [3H]spiroperidol competition binding, rat D2L receptors in HEK-293 cells; details: values of Table 3; for Ki: rat D2 in HEK-293 cells; for D2/D3: ratio of Ki values
From the text: as §1

[4] = system: PC12 cells; assay: MTT viability of PC12 cells treated with seeded α-syn aggregates; type: cell-based, rat; details: 30D samples, 24 h treatment, compared to control (seeded α-syn alone 37%)
Description: When PC12 cells were treated with the aggregates formed by 0.5% PFFs seeding at 30D, it was observed that the viability went down to 37% when compared to control. […] The viability values of PC12 cells when treated with α-syn seeded samples in the presence of (−)-91b and (−)-95a were 71% and 72% at 30D when compared to control (FIG. 5B).
Further, the cytotoxicity of the aggregates formed was evaluated in PC12 cells. Briefly, PC12 cells were treated with α-syn aggregates such that its concentration is 10 μM. 24 h following treatments, viability was measured by MTT assay as described previously.

[5] = system: PC12 cells; assay: MTT cell viability, compounds alone; type: cell-based, rat
Description: To investigate the neuroprotection property of the selected target molecules (−)-91b, (−)-95a and (−)-95c against 6-OHDA-induced cytotoxicity, we used dopaminergic rat adrenal Pheochromocytoma PC12 cells. As reported above, treatment of PC12 cells with 6-OHDA at 75 μM for 24 h produced ˜50% loss in cells viability and this concentration was used in subsequent experiments. […] However, (−)-95a produced some incremental toxicity starting at 20 μM dose (FIG. 4B). The potential neuroprotective effects of (−)-91b, (−)-95a and (−)-95c against 6-OHDA-induced toxicity were evaluated next. […] At those concentration both drugs increased cell survival by ˜20% compared to 6-OHDA (75 μM) treated alone (FIGS. 4D and 4F), indicating neuroprotective effect of these drugs. […] This could be due to the fact that the compound by itself produced toxicity to the cells at doses ≥20 μM and the presence of 6-OHDA enhanced the toxicity (FIG. 4B).
PC12 cells (ATCC CRL1721.1, Manassas, Va., USA), a rat adrenal pheochromocytoma cell line, were cultured in T-75 flasks (Greiner Bio One, Frickenhausen, Germany) and maintained in RPMI 1640 medium supplemented with 10% heat inactivated horse serum, 5% fetal bovine serum, 100 U/ml penicillin, and 100 μg/mL streptomycin at 37° C. in 95% air/5% CO2. Stock solutions of (−)-91b, (−)-95a, (−)-95c, and 6-hydroxydopamine (6-OHDA) were prepared in dimethylsulfoxide (DMSO) and aliquots were stored at −20° C. and −80° C., respectively. […]
PC12 cells were plated at 17000 cells/well density in 100 μL of media in 96-well plates and incubated at 37° C. under 5% CO2 atmosphere for 24 h. […] The absorbance was measured on a microplate reader (Biotek Epoch, Winooski, Vt., USA) at 570 nm with background correction performed at 690 nm. Data from at least three experiments were analyzed using GraphPad software (version 6, San Diego, Calif., USA). Cell viability was defined as […] compared to untreated controls.

Sequence of cloned rat D2L receptors (P61169 whole entry): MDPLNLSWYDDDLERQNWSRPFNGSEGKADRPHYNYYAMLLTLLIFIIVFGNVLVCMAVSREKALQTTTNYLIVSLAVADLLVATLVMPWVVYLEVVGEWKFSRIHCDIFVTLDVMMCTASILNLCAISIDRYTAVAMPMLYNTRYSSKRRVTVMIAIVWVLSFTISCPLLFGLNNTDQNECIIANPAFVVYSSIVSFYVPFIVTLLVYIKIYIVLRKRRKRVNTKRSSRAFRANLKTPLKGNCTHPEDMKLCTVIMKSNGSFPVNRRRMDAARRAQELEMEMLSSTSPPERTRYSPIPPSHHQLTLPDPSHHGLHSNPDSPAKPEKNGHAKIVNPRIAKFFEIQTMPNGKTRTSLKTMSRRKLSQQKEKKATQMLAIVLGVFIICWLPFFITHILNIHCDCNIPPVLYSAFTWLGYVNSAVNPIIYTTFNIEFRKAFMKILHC
Sequence of cloned rat D3 receptors (P19020 whole entry): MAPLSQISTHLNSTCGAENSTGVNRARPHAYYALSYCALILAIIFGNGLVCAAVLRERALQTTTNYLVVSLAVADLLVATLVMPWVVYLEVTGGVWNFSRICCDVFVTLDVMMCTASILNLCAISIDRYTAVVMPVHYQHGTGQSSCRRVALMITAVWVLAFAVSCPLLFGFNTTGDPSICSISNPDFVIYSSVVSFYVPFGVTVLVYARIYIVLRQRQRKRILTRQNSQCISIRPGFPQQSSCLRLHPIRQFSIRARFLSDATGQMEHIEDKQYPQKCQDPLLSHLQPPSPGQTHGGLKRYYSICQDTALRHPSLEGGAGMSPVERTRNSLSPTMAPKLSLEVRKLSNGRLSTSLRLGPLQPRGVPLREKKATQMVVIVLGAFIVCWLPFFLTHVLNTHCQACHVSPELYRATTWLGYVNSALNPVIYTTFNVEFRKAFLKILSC

Compound: CCCN(CCN1CCN(c2ccc3[nH]c4ccccc4c3c2)CC1)[C@H]1CCc2nc(N)sc2C1 [(−)-91b, (S)—N^6-(2-(4-(9H-carbazol-3-yl)piperazin-1-yl)ethyl)-N^6-propyl-4,5,6,7-tetrahydrobenzo[d]thiazole-2,6-diamine]
- Ki [1]: 0.0038 µM
- decrease in ThT fluorescence compared to seeded α-syn [2]: 16 fold
- Ki [3]: 0.135 µM
- D2/D3 [3]: 35
- viability of PC12 cells treated with α-syn seeded samples formed with compound [4]: 71%
- cell viability, compound alone ([5]; 0.01-30 μM, compared to untreated controls): no cells loss

Compound: CCCN(CCN1CCN(c2ccc3c(c2)[nH]c2ccccc23)CC1)[C@H]1CCc2c(O)cccc2C1 [Compound (−)-95a, (S)-6-((2-(4-(9H-carbazol-2-yl)piperazin-1-yl)ethyl)(propyl)amino)-5,6,7,8-tetrahydronaphthalen-1-ol]
- Ki [1]: 0.0004 µM
- decrease in ThT fluorescence compared to seeded α-syn [2]: 3 fold
- Ki [3]: 0.0712 µM
- D2/D3 [3]: 177
- viability of PC12 cells treated with α-syn seeded samples formed with compound [4]: 72%
- dose at which compound alone produced toxicity ([5]; compound alone): ≥ 20 µM
